Laboratory results: article PMC8262977, “A Dual-Specificity Inhibitor Targets Polyphosphate Kinase 1 and 2 Enzymes To Attenuate Virulence of Pseudomonas aeruginosa” (mBio, 2021)
Like-named read-outs stand apart in the source and are kept apart here.

Columns and labels:
P. aeruginosa PPK2C = target: T1, P. aeruginosa PPK2C (Pseudomonas aeruginosa, UniProt Q9HYF1); assay: PPK2C AMP phosphorylation by polyP (ADP synthesis), toluidine blue detection; type: biochemical; conditions: ADP synthesis from AMP and polyP; 275 nM enzyme; read-out: IC50 PPK2C
T1 construct: MBP (N, cleaved yes); His tag (N, cleaved yes); made in house; host or cells: E. coli BL21(DE3)
Experimental: All IC50 and kinetic assay mixtures contained equimolar amounts (275 nM) of PPK to ensure valid comparison between different enzymes. PolyP synthesis activity (for PPK1 and PPK2B) was assayed using the reaction buffer and conditions described above. ATP concentration was varied as indicated for kinetic experiments. Curves were fit using GraphPad Prism V9.
Nucleotide phosphorylation activity of PPK2 enzymes was assayed in buffer containing 50 mM Tris-HCl, pH 7.5, 10 mM (NH4)2SO4, 10 mM MgCl2, 5 mM polyP45 (Sigma; in terms of individual Pi monomers), and nucleotide (ADP or AMP) at 5 mM for IC50 reactions or as indicated for kinetic experiments. Enzyme was added to a final concentration of 275 nM in 100-μl reaction volumes. One-hundred-microliter reaction mixtures were incubated at 37°C for 30 min, and then 5-μl aliquots were withdrawn and added to 1,000 μl of 6-mg/liter toluidine blue dissolved in 40 mM acetic acid to quench the reaction and quantify the polyP that remained. The A630/530 nm ratio was then recorded, and the values obtained were corrected by subtracting the corresponding blanks (all ingredients except enzyme). The amount of polyP consumed was calculated by subtracting the amount present after reaction from that present in the initial reaction mix, as calculated via a standard curve. Each monomer of Pi consumed from polyP equates to one nucleoside phosphorylated. Curves were fit using GraphPad Prism V9.

P. aeruginosa PA14 [1] = assay: Biofilm assay, crystal violet staining; type: cell-based, Pseudomonas aeruginosa
Experimental: P. aeruginosa biofilms were quantified as described previously ([54]). Briefly, M63 medium supplemented with 1 mM MgSO4 and 0.4% arginine as the sole carbon source was colony inoculated with PA14. Biofilms were allowed to form in 96-well tissue culture plates (U-bottom; Sarstedt) at 37°C for 16 h. Wells were washed twice with sterile water. Biofilm rings were stained with 0.1% crystal violet, washed twice with water, and then solubilized in 30% acetic acid to record absorbance at 570 nm.

P. aeruginosa PA14 [2] = assay: Pyocyanin quantification (absorbance at 520 nm); type: cell-based, Pseudomonas aeruginosa
Experimental: Fifty-milliliter P. aeruginosa cultures in 2.5% (wt/vol) LB (Miller; Bioshop) were grown to stationary phase in 125-ml Erlenmeyer flasks with 180-rpm shaking at 37°C for 18 h. Cultures were centrifuged at 18,000 rpm for 30 min to clarify the supernatant, which was then filter sterilized. Pyoverdine was quantified spectrophotometrically at 403 nm as described previously ([55]). Pyocyanin was extracted via chloroform and treated with HCl to yield a red product that was quantified at 520 nm ([55]). To account for any colorimetric interference by inhibitors, cell-free blank readings were subtracted from each sample.

P. aeruginosa [3] = assay: C. elegans solid-phase slow killing (SK) infection assay; type: in vivo, Caenorhabditis elegans; conditions: 100 μM gallein
Experimental: (§1) Wild-type N2 C. elegans and the glp-4 conditionally sterile mutant strain were obtained from the Caenorhabditis Genetics Center. Liquid killing assays were conducted using glp-4 mutant worms as described previously ([35]), with the exception of survival being scored manually under a Zeiss light microscope instead of via Sytox Orange staining. Nematodes were scored as dead when they no longer moved when tapped. Solid killing was conducted using glp-4 as described previously ([34]), with the indicated concentration of inhibitor impregnated into the SK agar. Bacterial CFU accumulation in WT N2 worms was quantified as described previously ([56]). Briefly, age-synchronized embryos were spotted onto bacterium-seeded nematode growth medium (NGM) agar plates impregnated with inhibitor or DMSO. Embryos were incubated at 25°C for 3 days, after which point adult worms were harvested, washed, lysed, and enumerated for CFU.

P. aeruginosa [4] = assay: Bacterial CFU accumulation in the C. elegans gut; type: in vivo, Caenorhabditis elegans
Experimental: as §1

human protein kinases = assay: Counterscreen against human protein kinases, [33P]ATP filter-binding assay; type: biochemical; conditions: 10 μM gallein, array of divergent human kinases
Experimental: Toxicity is always a major concern with kinase inhibitors, even though the absence of PPK homologues in mammals makes these enzymes particularly attractive therapeutic targets ([1], [11]). Cytotoxicity of the inhibitors was therefore assessed in cultured human embryonic kidney (HEK) […] cells via standard trypan blue viability assays ([36]). While the initial hit RT1 reduced cell viability by ∼60%, gallein was noncytotoxic at concentrations up to 100 μM (Fig. 6A). Gallein was also counterscreened against an array of divergent human kinases available at the International Centre for Kinase Profiling (University of Dundee), as described previously ([37]).
FIG 6 Gallein avoids off-target toxicity. (A) HEK cell cytotoxicity assay. Viability determined via trypan blue staining following 48 h of incubation with compounds. (B) Counterscreen for inhibition of human protein kinases by 10 μM gallein via radioactive ([^33P]ATP) filter-binding assay performed by the University of Dundee MRC PPU ([26]). (A) ns, P > 0.05; *, P < 0.05 (one-way ANOVA, Tukey’s multiple-comparison test, n = 3).

[5] = set-up: method as in PMID 29084601, PMID 24703913, PMID 30024944; conditions: rats, 5 to 10 mg/kg of body weight daily for up to 8 weeks; cited from earlier work
[6] = mice, 5 to 10 mg/kg of body weight daily for up to 8 weeks; cited from earlier work
[7] = WT: DMSO control vs 100 µM gallein
[8] = ∆ppk1: DMSO control vs 100 µM gallein

T1 sequence (Q9HYF1 whole entry): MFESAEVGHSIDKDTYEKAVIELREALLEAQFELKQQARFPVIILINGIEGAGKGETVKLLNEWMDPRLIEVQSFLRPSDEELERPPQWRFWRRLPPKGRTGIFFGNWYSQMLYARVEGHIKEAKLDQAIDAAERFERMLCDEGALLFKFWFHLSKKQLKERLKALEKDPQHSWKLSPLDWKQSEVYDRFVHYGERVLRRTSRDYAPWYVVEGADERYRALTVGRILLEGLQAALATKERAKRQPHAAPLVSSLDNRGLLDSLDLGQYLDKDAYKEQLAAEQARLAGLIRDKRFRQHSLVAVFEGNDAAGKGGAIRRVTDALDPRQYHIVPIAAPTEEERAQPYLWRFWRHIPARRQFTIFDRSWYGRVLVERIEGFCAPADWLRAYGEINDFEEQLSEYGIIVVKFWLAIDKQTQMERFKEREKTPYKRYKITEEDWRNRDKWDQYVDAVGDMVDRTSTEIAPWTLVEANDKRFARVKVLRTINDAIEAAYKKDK

O=C1OC2(c3ccccc31)c1ccc(O)c(O)c1Oc1c2ccc(O)c1O [RT4 (gallein), gallein]
IC50 (P. aeruginosa PPK2C): 165 ± 5 µM
Biofilm formation, Mean Diff. (P. aeruginosa PA14 [1]; [7]): 0.1666
biofilm formation (P. aeruginosa PA14 [1]; WT, reduction dose dependent): reduced biofilm formation
biofilm formation (P. aeruginosa PA14 [1]; ΔpolyP strain): no significant effect
Biofilm formation, Mean Diff. (P. aeruginosa PA14 [1]; Δppk1, 2a, 2b, 2c: DMSO control vs 100 µM gallein): 0.005375
Biofilm formation, Mean Diff. (P. aeruginosa PA14 [1]; Δppk1: DMSO control vs 100 µM gallein): 0.08825
biofilm formation (P. aeruginosa PA14 [1]; Δppk1 strain): further decreased biofilm formation
Biofilm formation, Mean Diff. (P. aeruginosa PA14 [1]; Δppk2a, 2b, 2c: DMSO control vs 100 µM gallein): 0.08488
biofilm formation (P. aeruginosa PA14 [1]; Δppk2 strain): further decreased biofilm formation
pyocyanin production (P. aeruginosa PA14 [2]; WT, Δppk1 and Δppk2 strains): reproduced the marked pyoverdine and pyocyanin defects observed in the ΔpolyP strain
Pyocyanin, Mean Diff. (P. aeruginosa PA14 [2]; [7]): 0.2097
pyocyanin production (P. aeruginosa PA14 [2]; ΔpolyP strain): no significant decrease of either toxin
Pyocyanin, Mean Diff. (P. aeruginosa PA14 [2]; ∆ppk1, 2a, 2b, 2c: DMSO control vs 100 µM gallein): 0.07567
Pyocyanin, Mean Diff. (P. aeruginosa PA14 [2]; [8]): 0.08867
Pyocyanin, Mean Diff. (P. aeruginosa PA14 [2]; ∆ppk2a, 2b, 2c: DMSO control vs 100 µM gallein): 0.2097
C. elegans survival (P. aeruginosa [3]): significantly improved survival rates
bacterial accumulation in the nematode gut (P. aeruginosa [4]; WT strain): reduced bacterial accumulation in the nematode gut
C. elegans accumulation CFU, Mean Diff. (P. aeruginosa [4]; [7]): 783.3
bacterial accumulation in the nematode gut (CFU) (P. aeruginosa [4]; ΔpolyP strain): no additional decrease in CFU
bacterial accumulation in the nematode gut (P. aeruginosa [4]; Δppk1 strain): further reduced bacterial accumulation
C. elegans accumulation CFU, Mean Diff. (P. aeruginosa [4]; ∆polyP: DMSO control vs 100 µM gallein): -33.33
C. elegans accumulation CFU, Mean Diff. (P. aeruginosa [4]; [8]): 446.7
loss of activity of human kinases (human protein kinases): ≤ 25%
adverse effects [5]: no adverse effects
adverse effects [6]: no adverse effects
